Source: patent publication US20110281798A1, “Methods for Lowering Plasma Glucagon with Exendins and Exendin Agonist Analogs” (AMYLIN PHARMACEUTICALS, INC., priority 1999, published 2011)

Key:
diabetic db/db mice = test: Plasma glucose lowering in diabetic db/db mice, dose response; type: in vivo, mouse
Sprague-Dawley rats = test: Insulinotropic action during intravenous glucose challenge in rats; type: in vivo, rat; conditions: 30 pmol/kg/min i.v.

Q: For GLP-1 [7-36]NH2, which “Glucose-lowering ED50” value (diabetic db/db mice; diabetic db/db mice) is on record?
A: 20.6 µg

Q: What about the “Increase of 60-min insulin AUC versus saline” value (Sprague-Dawley rats; n.s. versus saline) of the same substance?
A: 20%

Q: And the “Plasma glucose after glucose injection” value (Sprague-Dawley rats; saline 21.7)?
A: 23.7 mM

Q: And the “60-min glucose AUC” value (Sprague-Dawley rats; saline 987±39)?
A: 1096 ± 68 mM·min

Q: “Leu^14, Phe^25 1-28 exendin-4 (HGEGTFTSDLSKQLEEEAVRLAIEFLKN) [AC3177, a shortened analog of exendin 4]” was tested. Which “glucose lowering activity compared with exendin 4” value (diabetic db/db mice; model not stated at b253) did it give?
A: nearly equipotent activity to exendin 4
